According to ChEMBL document CHEMBL1221224, “Inhibition of Wnt signaling by Dishevelled PDZ peptides” (Nat Chem Biol, 2009):
Values belong to the molecule of their own block, whether it stands above or below them. Activity calls are given as the source filed them. No cut-off for these calls is given here. Where a SMILES comes first, the peptide text is derived from it.

What was measured:
[1] = Cytotoxicity in human HEK293S cells assessed as cell viability at 33 uM after 18 hrs by differential interference contrast microscopy; assay type: cell-based
[2] = tested on: HCT-15; assay: Inhibition of Dvl mediated Wnt/TCF signaling in human HCT15 after 18 hrs by TOPglow reporter assay; assay type: cell-based
[3] = biological target: T1, Segment polarity protein dishevelled homolog DVL-2 (Homo sapiens) (UniProt O14641); assay: Inhibition of Dvl2 overexpressed in human HEK293S assessed as inhibition of […]/TCF reporter signaling at 20 uM after 18 hrs by TOPglow reporter assay
T1 sequence (whole entry): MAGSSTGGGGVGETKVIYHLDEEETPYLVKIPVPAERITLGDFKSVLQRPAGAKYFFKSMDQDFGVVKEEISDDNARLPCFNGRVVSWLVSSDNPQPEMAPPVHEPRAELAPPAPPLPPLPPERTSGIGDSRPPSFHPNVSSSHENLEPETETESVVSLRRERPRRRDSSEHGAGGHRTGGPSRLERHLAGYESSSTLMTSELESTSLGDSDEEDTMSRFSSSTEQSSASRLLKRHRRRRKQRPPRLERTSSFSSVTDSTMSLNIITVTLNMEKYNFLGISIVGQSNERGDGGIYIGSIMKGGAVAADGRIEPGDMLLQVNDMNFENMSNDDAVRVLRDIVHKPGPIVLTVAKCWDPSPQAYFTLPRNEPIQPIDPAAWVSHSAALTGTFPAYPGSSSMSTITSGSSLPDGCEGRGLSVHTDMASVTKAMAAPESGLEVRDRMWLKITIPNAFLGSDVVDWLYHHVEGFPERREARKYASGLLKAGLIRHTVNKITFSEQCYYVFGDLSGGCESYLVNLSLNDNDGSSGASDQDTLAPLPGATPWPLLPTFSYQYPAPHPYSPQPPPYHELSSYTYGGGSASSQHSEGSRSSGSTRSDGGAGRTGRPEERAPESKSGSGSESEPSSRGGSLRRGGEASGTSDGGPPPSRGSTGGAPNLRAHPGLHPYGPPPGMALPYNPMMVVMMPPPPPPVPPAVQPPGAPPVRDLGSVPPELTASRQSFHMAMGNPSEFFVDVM

[4] = tested on: HEK293; assay: Inhibition of Dvl mediated Wnt3a signaling in human HEK293 cells assessed as […] accumulation at 10 uM after 18 hrs by Western blot method; assay type: cell-based
[5] = Inhibition of Dvl mediated Wnt3a/TCF signaling in human HEK293S cells after 18 hrs by TOPglow reporter assay
[6] = biological target: T2, Segment polarity protein dishevelled homolog DVL-3 (Homo sapiens) (UniProt Q92997); assay: Binding affinity at Dvl3 in human HEK293S lysate after 15 mins by pulldown and Western blot assays
T2 sequence (whole entry): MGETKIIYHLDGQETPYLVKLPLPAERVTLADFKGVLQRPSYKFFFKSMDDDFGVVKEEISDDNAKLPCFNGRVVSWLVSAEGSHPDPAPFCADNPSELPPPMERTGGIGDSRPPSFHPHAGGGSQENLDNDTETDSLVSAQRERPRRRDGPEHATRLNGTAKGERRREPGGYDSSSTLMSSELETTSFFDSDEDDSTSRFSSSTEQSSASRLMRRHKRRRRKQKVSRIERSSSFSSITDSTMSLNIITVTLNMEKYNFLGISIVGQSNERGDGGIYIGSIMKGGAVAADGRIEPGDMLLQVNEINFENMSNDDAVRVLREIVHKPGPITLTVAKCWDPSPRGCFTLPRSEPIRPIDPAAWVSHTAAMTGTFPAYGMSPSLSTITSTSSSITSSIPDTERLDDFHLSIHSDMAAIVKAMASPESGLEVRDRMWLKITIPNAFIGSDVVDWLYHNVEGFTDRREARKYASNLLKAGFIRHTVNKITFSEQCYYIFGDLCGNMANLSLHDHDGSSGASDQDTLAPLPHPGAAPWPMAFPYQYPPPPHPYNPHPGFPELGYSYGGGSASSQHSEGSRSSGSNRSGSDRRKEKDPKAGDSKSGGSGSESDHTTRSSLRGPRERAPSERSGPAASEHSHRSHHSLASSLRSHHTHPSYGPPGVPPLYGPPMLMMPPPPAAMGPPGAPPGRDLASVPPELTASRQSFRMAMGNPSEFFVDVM

[7] = biological target: T3, Segment polarity protein dishevelled homolog DVL-1 (Homo sapiens) (UniProt O14640); assay: Inhibition of Dvl1 overexpressed in human HEK293S assessed as inhibition of […]/TCF reporter signaling at 20 uM after 18 hrs by TOPglow reporter assay
T3 sequence (whole entry): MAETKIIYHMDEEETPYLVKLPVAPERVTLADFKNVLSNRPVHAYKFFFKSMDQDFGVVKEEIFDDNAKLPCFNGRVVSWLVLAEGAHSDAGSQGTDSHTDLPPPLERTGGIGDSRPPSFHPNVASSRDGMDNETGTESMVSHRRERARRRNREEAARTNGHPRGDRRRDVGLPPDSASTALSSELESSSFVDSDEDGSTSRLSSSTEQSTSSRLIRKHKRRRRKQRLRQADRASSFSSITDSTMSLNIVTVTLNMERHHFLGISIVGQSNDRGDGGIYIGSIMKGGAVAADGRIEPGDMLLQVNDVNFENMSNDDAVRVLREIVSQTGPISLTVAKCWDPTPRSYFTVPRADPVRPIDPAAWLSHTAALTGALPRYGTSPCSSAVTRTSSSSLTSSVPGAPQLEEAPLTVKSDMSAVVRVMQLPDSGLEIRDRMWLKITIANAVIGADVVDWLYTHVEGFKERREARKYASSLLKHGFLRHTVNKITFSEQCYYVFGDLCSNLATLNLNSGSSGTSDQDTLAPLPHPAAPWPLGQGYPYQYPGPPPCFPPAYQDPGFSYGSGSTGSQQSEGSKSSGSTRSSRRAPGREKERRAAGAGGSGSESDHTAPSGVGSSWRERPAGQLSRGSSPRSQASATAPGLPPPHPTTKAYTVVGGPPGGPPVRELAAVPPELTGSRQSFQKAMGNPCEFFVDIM

[8] = Drug uptake in human HEK293S cells after 1 hr by time-lapse microscopy; assay type: ADME, cell-based
[9] = biological target: T2, Segment polarity protein dishevelled homolog DVL-3 (Homo sapiens); assay: Inhibition of Dvl3 overexpressed in human HEK293S assessed as inhibition of […]/TCF reporter signaling at 20 uM after 18 hrs by TOPglow reporter assay
[10] = biological target: T4, Catenin beta-1 (Homo sapiens) (UniProt P35222); assay: Inhibition of […] mediated […]/TCF reporter signaling in human HEK293S at 20 uM after 18 hrs by TOPglow reporter assay; assay type: functional
T4 sequence (whole entry): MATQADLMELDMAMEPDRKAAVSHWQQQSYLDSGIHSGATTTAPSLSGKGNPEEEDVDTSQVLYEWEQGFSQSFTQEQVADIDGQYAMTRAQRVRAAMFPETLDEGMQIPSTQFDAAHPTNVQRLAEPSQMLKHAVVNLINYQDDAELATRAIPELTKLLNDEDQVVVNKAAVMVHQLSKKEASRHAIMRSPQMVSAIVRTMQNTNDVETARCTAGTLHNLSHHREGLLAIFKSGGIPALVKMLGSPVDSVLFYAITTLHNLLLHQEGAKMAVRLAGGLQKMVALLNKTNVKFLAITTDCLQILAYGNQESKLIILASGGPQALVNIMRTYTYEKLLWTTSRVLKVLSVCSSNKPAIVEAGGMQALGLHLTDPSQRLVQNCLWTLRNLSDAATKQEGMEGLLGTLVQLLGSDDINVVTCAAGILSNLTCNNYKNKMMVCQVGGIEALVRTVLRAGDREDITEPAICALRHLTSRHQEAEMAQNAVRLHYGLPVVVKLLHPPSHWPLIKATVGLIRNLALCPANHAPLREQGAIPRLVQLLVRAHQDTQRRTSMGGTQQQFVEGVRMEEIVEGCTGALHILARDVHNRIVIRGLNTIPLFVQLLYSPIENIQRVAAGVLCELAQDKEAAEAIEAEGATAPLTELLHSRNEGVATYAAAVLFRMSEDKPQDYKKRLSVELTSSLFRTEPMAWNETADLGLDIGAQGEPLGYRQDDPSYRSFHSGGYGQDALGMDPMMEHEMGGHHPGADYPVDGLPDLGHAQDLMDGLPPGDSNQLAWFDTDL

[11] = biological target: T5, Segment polarity protein dishevelled homolog DVL-2 (Homo sapiens, UniProt O14641); assay: (§1) Binding affinity at Dvl2 PDZ domain after 15 mins by fluorescence polarization assay
T5 sequence (O14641 whole entry): T1 sequence (whole entry)

[12] = biological target: T1, Segment polarity protein dishevelled homolog DVL-2 (Homo sapiens); assay: as §1
[13] = Cytotoxicity in human HEK293S cells assessed as cell viability at 300 uM after 18 hrs by differential interference contrast microscopy; assay type: cell-based
[14] = Cytotoxicity in human HEK293S cells assessed as cell viability at 100 uM after 18 hrs by differential interference contrast microscopy; assay type: cell-based

SMILES: CC[C@H](C)[C@H](NC(=O)[C@H](Cc1c[nH]c2ccccc12)NC(=O)[C@@H](NC(=O)[C@H](CCC(=O)O)NC(=O)[C@H](CC(N)=O)NC(=O)CNC(=O)[C@@H](N)CO)C(C)C)C(=O)N[C@@H](CC(=O)O)C(=O)NCC(=O)N1CCC[C@H]1C(=O)O (H-SGNEVWIDGP-OH)
Activity [12]: Active

SMILES: CCCCC(O)c1[nH]c2cc(C)c(C(=O)O)cc2c1CCc1ccccc1 (configuration not stated)
Activity [13]: Toxic | IC50 [5]: > 100 µM | Activity [14]: Toxic

SMILES: CC[C@H](C)[C@H](NC(=O)[C@H](CC(=O)O)NC(=O)[C@H](CO)NC(=O)[C@H](Cc1c[nH]c2ccccc12)NC(=O)[C@H](CC(C)C)NC(=O)[C@@H](NC(=O)[C@@H](NC(=O)[C@H](CCC(=O)O)NC(=O)CN)[C@@H](C)CC)C(C)C)C(=O)O (H-GEIVLWSDI-OH)
Ki [11]: 4.6 µM

Now from value to molecule, other results behind:

inhibition [3]: Active | IC50 [5]: 11 µM | Activity [6]: Active | inhibition [7]: Active | Drug uptake [8]: Active | inhibition [9]: Active | inhibition [10]: inactive
SMILES: CC[C@H](C)[C@H](NC(=O)[C@H](CCCCN)NC(=O)[C@@H](NC(=O)[C@H](CCC(N)=O)NC(=O)[C@H](CCCNC(=N)N)NC(C)=O)[C@@H](C)CC)C(=O)N[C@@H](Cc1c[nH]c2ccccc12)C(=O)N[C@@H](Cc1ccccc1)C(=O)N[C@@H](CCC(N)=O)C(=O)N[C@@H](CC(N)=O)C(=O)N[C@@H](CCCNC(=N)N)C(=O)N[C@@H](CCCNC(=N)N)C(=O)N[C@@H](CCSC)C(=O)N[C@@H](CCCCN)C(=O)N[C@@H](Cc1c[nH]c2ccccc12)C(=O)N[C@@H](CCCCN)C(=O)N[C@@H](CCCCN)C(=O)NCC(=O)NCC(=O)NCC(=O)N[C@@H](CCC(=O)O)C(=O)N[C@H](C(=O)N[C@H](C(=O)N[C@@H](CC(C)C)C(=O)N[C@@H](Cc1c[nH]c2ccccc12)C(=O)N[C@@H](CO)C(=O)N[C@@H](CC(=O)O)C(=O)N[C@H](C(=O)N1CCC[C@H]1C(N)=O)[C@@H](C)CC)C(C)C)[C@@H](C)CC
Activity [1]: Non-toxic | inhibition [2]: inactive | inhibition [4]: Active

Ki [11]: 0.7 µM
SMILES: NCCCC[C@H](NC(=O)[C@@H](N)Cc1c[nH]c2ccccc12)C(=O)N[C@@H](Cc1c[nH]c2ccccc12)C(=O)N[C@@H](Cc1ccc(O)cc1)C(=O)NCC(=O)N[C@@H](Cc1c[nH]c2ccccc12)C(=O)N[C@@H](Cc1ccccc1)C(=O)O (H-WKWYGWF-OH)

Ki [11]: 1.2 µM
SMILES: CC[C@H](C)[C@H](NC(=O)[C@H](Cc1c[nH]c2ccccc12)NC(=O)CNC(=O)[C@H](Cc1ccc(O)cc1)NC(=O)[C@H](CC(=O)O)NC(=O)[C@H](CCCCN)NC(=O)[C@@H](N)Cc1c[nH]c2ccccc12)C(=O)N[C@@H](CC(=O)O)C(=O)O (H-WKDYGWID-OH)
